Results on 29 compounds are retold here after patent publication US12162867B2, “Inhibitors of RNA helicase DHX9 and uses thereof” (ACCENT THERAPEUTICS, INC., priority 2022, dated 2024).

Assay type in all cases: cell-based
For one test, the system named is LS411N cells. In words: DHX9 cellular proliferation assay (CellTiter-Glo), LS411N (CRC-MSI). The conditions noted are these: Homo sapiens, LS-411N, LS411N; performed at Pharmaron; read-out: LS411N (CRC-MSI-H) Antiproliferative IC50. In general terms: Cellular ATP, detected with luciferase, serves as a proxy for viable cell number.
The test system of another test is NCI-H747 cells. Briefly: DHX9 cellular proliferation assay (CellTiter-Glo), NCI-H747 (CRC-MSS). The following applies: Homo sapiens, NCI-H747, NCI-H747; performed at Pharmaron; read-out: H747 (CRC-MSS) Antiproliferative IC50.
The subject of test [1] is circBRIP1 in HCT116 cells. Briefly: DHX9 circBRIP1 cellular target engagement TaqMan Multiplex assay (qPCR). The following applies: Homo sapiens, HCT-116, circBRIP1, HCT116 cells; * Taqman assay was used; read-out: DHX9 Cellular Target Engagement EC50. (In general: Quantitative PCR measures a nucleic acid by following its amplification.)

SMILES strings stand for the structures.

For orientation: IC50 means the midpoint of a concentration-inhibition curve. A word on the EC50: it is the concentration at which the effect is half-maximal. In the case of `COC(=O)N1CCN(c2cnc(-c3cc(C(=O)Nc4cc(Cl)cc(NS(C)(=O)=O)c4)sc3C)c(C)c2)CC1` [Example 601], the IC50 in the test with LS411N cells was 64.5 nM; in the test with NCI-H747 cells, > 10000 nM. For the same compound, the EC50 in test [1] was 106 nM.

Take `CN1C(=O)N(c2ccc(-c3cc(C(=O)Nc4cc(Cl)cc(NS(C)(=O)=O)c4)cn3C)nc2)C(=O)C1(C)C` [Example 603]: the values for the IC50 in the test on LS411N cells and in the test on NCI-H747 cells were 1090 nM and 8370 nM, respectively. In test [1], the EC50 was 45.8 nM.

`Cc1sc(C(=O)Nc2cc(Cl)cc(NS(C)(=O)=O)c2)cc1-c1ncc(OC2CN(C)C2)cn1` [Example 609, N-(3-chloro-5-methanesulfonamidophenyl)-5-methyl-4-{5-[(1-methylazetidin-3-yl)oxy]pyrimidin-2-yl}thiophene-2-carboxamide]: the IC50 in the test on LS411N cells is 658 nM; in the test with NCI-H747 cells it was > 10000 nM. Besides, the EC50 in test [1] is 4.7 nM.

Take `CN1CC(Oc2cnc(-c3cc(C(=O)Nc4cc(Cl)cc(NS(C)(=O)=O)c4)cn3C)c(F)c2)C1` [Example 611]: the IC50 with LS411N cells amounted to 133 nM; in the test on NCI-H747 cells, 8830 nM. Besides, in test [1], the EC50 turned out to be 20.5 nM.

For the compound `CN1CC(Oc2cnc(-c3cc(C(=O)Nc4cc(Cl)cc(NS(C)(=O)=O)c4)cn3CC(F)(F)F)nc2)C1` [Example 613], the results for the half-maximal inhibitory concentration (IC50) in the test with LS411N cells and in the test with NCI-H747 cells were 173 nM and > 10000 nM, respectively. Further, the EC50 in test [1] stood at 116 nM.

Regarding `Cn1cc(C(=O)Nc2cc(Cl)cc(NS(C)(=O)=O)c2)cc1-c1ncc(OC2CN(CC(F)F)C2)cc1F` [Example 614], the figures for the IC50 in the test on LS411N cells and in the test on NCI-H747 cells were 53.1 nM and 3190 nM, respectively. Also, in test [1], the EC50 came out at 26.9 nM.

For `Cn1cc(C(=O)Nc2cc(Cl)cc(NS(C)(=O)=O)c2)cc1-c1ncc(OC2CN(CC(F)(F)F)C2)cc1F` [Example 615], the results for the IC50 in the test on LS411N cells and with NCI-H747 cells were 71.3 nM and 7560 nM, respectively. In addition, in test [1], the EC50 is 133 nM.

For the compound `CNc1cnc(-c2cc(C(=O)Nc3cc(Cl)cc(NS(C)(=O)=O)c3)sc2C)nc1` [Example 616, N-(3-chloro-5-methanesulfonamidophenyl)-5-methyl-4-[5-(methylamino)pyrimidin-2-yl]thiophene-2-carboxamide], the IC50 was 348 nM in the test with LS411N cells and > 10000 nM with NCI-H747 cells. The EC50 in test [1] came to 17.3 nM.

`Cc1sc(C(=O)Nc2cc(Cl)cc(NS(C)(=O)=O)c2)cc1-c1ncc(C2CCN(CC(F)(F)F)CC2)cc1F` [Example 618]: the IC50 in the test with LS411N cells worked out at 132 nM; in the test on NCI-H747 cells it was 1850 nM. The EC50 in test [1] is 45.4 nM.

As for `Cn1cc(C(=O)Nc2cc(Cl)cc(NS(C)(=O)=O)c2)cc1-c1ccc(C2CCN(CC(F)(F)F)CC2)cn1` [Example 619], the IC50 in the test on LS411N cells was 178 nM; in the test on NCI-H747 cells, 3620 nM. The EC50 in test [1] was 84.5 nM.

As for `CCS(=O)(=O)Nc1cc(Cl)cc(NC(=O)c2cc(-c3ncc(F)cc3OCc3nccs3)c(C)s2)c1` [Example 622], the IC50 was 48.9 nM with LS411N cells and > 10000 nM with NCI-H747 cells. Also, the EC50 in test [1] came to 55.9 nM.

`CCS(=O)(=O)Nc1cc(Cl)cc(NC(=O)c2cc(-c3ncc(F)cc3OCc3cncnc3)c(C)s2)c1` [Example 623]: the values for the half-inhibitory concentration (IC50) in the test with LS411N cells and in the test on NCI-H747 cells were 72.3 nM and > 10000 nM, respectively. The EC50 in test [1] worked out at 11.2 nM.

Regarding `Cc1sc(C(=O)Nc2cc(Cl)cc(NS(=O)(=O)CCO)c2)cc1-c1ncccc1OCc1cncc(F)c1` [Example 626], the IC50 with LS411N cells is 137 nM; in the test with NCI-H747 cells, > 10000 nM. In addition, the EC50 in test [1] is 24.1 nM.

For `Cn1cc(C(=O)Nc2cc(Cl)cc(NS(C)(=O)=O)c2)cc1-c1ncncc1OCc1cc(F)cc(F)c1` [Example 627], the IC50 is 29.4 nM in the test with LS411N cells and > 10000 nM in the test on NCI-H747 cells. The 50% effective concentration (EC50) in test [1] stood at 37.6 nM.

On to `Cc1sc(C(=O)Nc2cc(Cl)cc(NS(C)(=O)=O)c2)cc1-c1ncc(OC2CN(C)C2)cc1F` [Example 635], for which the IC50 is 79.2 nM in the test on LS411N cells and > 10000 nM in the test with NCI-H747 cells. Besides, in test [1], the EC50 was 19.1 nM.

With `Cc1sc(C(=O)Nc2cc(Cl)cc(NS(C)(=O)=O)c2)cc1-c1ncc(OC2CNC2)cn1` [Example 636, 4-[5-(azetidin-3-yloxy)pyrimidin-2-yl]-N-(3-chloro-5-methanesulfonamidophenyl)-5-methylthiophene-2-carboxamide], the IC50 in the test with LS411N cells is 1210 nM; in the test on NCI-H747 cells it was > 10000 nM. Further, in test [1], the EC50 stood at 300 nM.

Regarding `CN(C)CCOc1cnc(-c2cc(C(=O)Nc3cc(Cl)cc(NS(C)(=O)=O)c3)cn2C)c(F)c1` [Example 646], the IC50 is 32.5 nM in the test with LS411N cells and > 10000 nM in the test on NCI-H747 cells. Also, the EC50 in test [1] worked out at 45.3 nM.

Consider `Cc1cc(C(=O)Nc2cc(Cl)cc(NS(C)(=O)=O)c2)cn1-c1ncc(OC(C)(C)C)cn1` [Example 664], for which the IC50 with LS411N cells is 163 nM; in the test on NCI-H747 cells it was > 10000 nM. For the same compound, the EC50 in test [1] turned out to be 71.9 nM.

Turning to `Cc1sc(C(=O)Nc2cc(Cl)cc(NS(C)(=O)=O)c2)cc1-c1ncc(OC(C)(C)CO)cn1` [Example 678], the half-inhibitory concentration (IC50) stood at 391 nM in the test on LS411N cells and 3100 nM with NCI-H747 cells. For the same compound, the EC50 in test [1] was found to be 18.7 nM.

On to `Cc1sc(C(=O)Nc2cc(Cl)cc(NS(C)(=O)=O)c2)cc1-c1ncc(C2(F)COC2)cn1` [Example 680], for which the IC50 in the test with LS411N cells was found to be 208 nM; with NCI-H747 cells it was 8760 nM. Further, the EC50 in test [1] is 31 nM.

Consider `CC(C)(C)Oc1cnc(-c2cc(C(=O)Nc3cc(Cl)cc(NS(C)(=O)=O)c3)sc2CO)nc1` [Example 686], for which the half-inhibitory concentration (IC50) in the test on LS411N cells was 132 nM; with NCI-H747 cells it was 4630 nM. Also, the EC50 in test [1] came out at 47.7 nM.

On to `Cn1cc(C(=O)Nc2cc(Cl)cc(NS(C)(=O)=O)c2)cc1-c1ccc(N2CC(C)(F)C2)cn1` [Example 688], for which the concentration for half-maximal inhibition (IC50) with LS411N cells is 122 nM; with NCI-H747 cells, 6360 nM. Moreover, the EC50 in test [1] came to 47.5 nM.

Turning to `Cc1cc(C(=O)Nc2cc(Cl)cc(NS(C)(=O)=O)c2)cn1-c1ncc(N2CC(C(F)(F)F)C2)cn1` [Example 694], the figures for the IC50 in the test on LS411N cells and in the test with NCI-H747 cells were 80.4 nM and 7770 nM, respectively. In addition, the EC50 in test [1] was 90 nM.

As for `Cn1cc(C(=O)Nc2cc(Cl)cc(NS(C)(=O)=O)c2)cc1-c1ccc(N2CC(CS(C)(=O)=O)C2)cn1` [Example 695], the IC50 was 2970 nM in the test on LS411N cells and > 10000 nM with NCI-H747 cells. The EC50 in test [1] worked out at 143 nM.

As to `Cc1sc(C(=O)Nc2cc(Cl)cc(NS(C)(=O)=O)c2)cc1-c1ncc(F)cc1C#CC(C)(C)O` [Example 696], the IC50 with LS411N cells stood at 45.1 nM; in the test on NCI-H747 cells, 7700 nM. Further, the half-maximal effective concentration (EC50) in test [1] was 36.7 nM.

For the compound `CC(=O)N1CCC(c2cnc(-c3cc(C(=O)Nc4cc(Cl)cc(NS(C)(=O)=O)c4)sc3C)nc2)CC1` [Example 699], the IC50 with LS411N cells was 517 nM; in the test on NCI-H747 cells, > 10000 nM. Further, the EC50 in test [1] came out at 21.9 nM.

With `Cn1cc(C(=O)Nc2cc(Cl)cc(NS(C)(=O)=O)c2)cc1-c1ncc(N2CC3(C2)CC(F)(F)C3)cc1F` [Example 702], the IC50 in the test on LS411N cells was determined as 224 nM; in the test with NCI-H747 cells, 8120 nM. The EC50 in test [1] is 31.6 nM.

Regarding `Cn1cc(C(=O)Nc2cc(Cl)cc(NS(C)(=O)=O)c2)cc1-c1ccc(C2CCOCC2)cn1` [Example 704], the IC50 with LS411N cells was 56.9 nM; in the test with NCI-H747 cells, 7140 nM. Also, the EC50 in test [1] is 25.4 nM.

On to `Cc1sc(C(=O)Nc2cc(Cl)cc(NS(C)(=O)=O)c2)cc1-c1ncc(OCC(F)(F)F)cn1` [Example 706], for which the IC50 with LS411N cells was determined as 243 nM; in the test with NCI-H747 cells, 3880 nM. The EC50 in test [1] was 51.7 nM.
